Laboratory results taken from patent publication US6384237B1, “Pyrylium compound, process for making the same, nucleic acid stain, and labeled nucleic acid” (Canon Kabushiki Kaisha, priority 1999, dated 2002).

How the values were obtained:
salmon sperm DNA [1] = assay: Spectrofluorimetry of the pyrylium compound with and without salmon sperm DNA; format: binding; settings: excitation 550 nm; for fluorescence of solution not containing DNA: no DNA; for fluorescence wavelength of solution containing DNA (fluoresces intensely): with salmon sperm DNA
Procedure: A fraction of Solution IA and a fraction of Solution IB were diluted so that the concentration of Compound 3 was the same in these diluted solutions. The diluted solutions were subjected to conventional spectrofluorimetry by excitation light having a wavelength of 550 nm.
A fraction of Solution IIA and a fraction of Solution IIB were diluted so that the concentration of Compound 6 was the same in these diluted solutions. The diluted solutions were subjected to conventional spectrofluorimetry by excitation light having a wavelength of 550 nm.

salmon sperm DNA [2] = assay: Absorption spectrophotometry of the pyrylium compound free and mixed with salmon sperm DNA; format: binding; settings: DNA 50 μg/ml, compound 3×10^−5 M, 10 mM phosphate buffer pH 7.0
Procedure: Compound 3 prepared in Example 1 (2-(3-carboxypropyl)-4,6-bis(4-N,N-dimethylaminophenyl)pyrylium iodide) was dissolved into a 10 mM phosphate buffer solution (pH 7.0) to prepare Solution IA. A fraction of Solution IA was diluted to a final concentration of 3×10^−5 M, and the diluted solution was subjected to absorption spectrophotometry. The absorption spectrum is denoted by (A) in FIG. 1.
(§1) A DNA solution was prepared using salmon sperm DNA (mfd. by Sigma-Aldrich Co.) which was adequately purified according to a conventional method. A fraction of the DNA solution and a fraction of Solution IA were mixed to prepare Solution IB in which the final DNA concentration was 50 μg/ml and the final concentration of Compound 3 was 3×10^−5 M. A fraction of Solution IB was subjected to absorption spectrophotometry. The absorption spectrum is denoted by (B) in FIG. 1.
(§2) With reference to spectrum (A) of Compound 3 and spectrum (B) of Solution IB in FIG. 1, the absorption bands of Solution IB are shifted to longer wavelengths by 30 nm and absorbance is decreased due to interaction between Compound 3 and the DNA. These changes can be attributed to the intercalative characteristics of Compound 3.
Compound 6 prepared in Example 3 (2-(2-carboxyethyl)-4,6-bis(4-N,N-dimethylaminophenyl)pyrylium iodide) was dissolved into a 10 mM phosphate buffer solution (pH 7.0) to prepare Solution IIA. A fraction of Solution IIA was diluted to a final concentration of 3×10^−5 M, and the diluted solution was subjected to absorption spectrophotometry. The absorption spectrum is denoted by (A) in FIG. 4.
as §1, with “DNA (Sigma-Aldrich” for “DNA (mfd. by Sigma-Aldrich”, “Solution IIA” for “Solution IA”, “Solution IIB” for “Solution IB”, “Compound 6” for “Compound 3”, “FIG. 4.” for “FIG. 1.”
as §2, with “Compound 6” for “Compound 3”, “Solution IIB” for “Solution IB”, “FIG. 4,” for “FIG. 1,”, “to” for “to the”, “Compound 6.” for “Compound 3.”

| Structure (SMILES) | fluorescence of solution not containing DNA (salmon sperm DNA [1]) | fluorescence wavelength of solution containing DNA (fluoresces intensely) (salmon sperm DNA [1]) | change of absorbance due to interaction with DNA (salmon sperm DNA [2]) | shift of absorption bands to longer wavelengths due to interaction with DNA (salmon sperm DNA [2]) |
| --- | --- | --- | --- | --- |
| CN(C)c1ccc(-c2cc(CCC(=O)O)[o+]c(-c3ccc(N(C)C)cc3)c2)cc1.[I-] [Compound 6, 2-(2-carboxyethyl)-4,6-bis(4-N,N-dimethylaminophenyl)pyrylium iodide] | does not fluoresce | ~640 nm | decreased | 30 nm |
| CN(C)c1ccc(-c2cc(CCCC(=O)O)[o+]c(-c3ccc(N(C)C)cc3)c2)cc1.[I-] [Compound 3, 2-(3-carboxypropyl)-4,6-bis(4-N,N-dimethylaminophenyl)pyrylium iodide] | does not fluoresce | ~640 nm | decreased | 30 nm |
